Article PMC3411833, “The Two PPX-GppA Homologues from Mycobacterium tuberculosis Have Distinct Biochemical Activities” (PLoS ONE, 2012)

How the values were obtained:
MTB-PPX1 (Rv0496) [1] = biological target: T1, MTB-PPX1 (Rv0496) (Mycobacterium tuberculosis, UniProt P9WHV5)
MTB-PPX1 (Rv0496) [2] = biological target: T1, MTB-PPX1 (Rv0496); remark: listed apart in the source
Rv1026 = biological target: T2, Rv1026 (Mycobacterium tuberculosis, UniProt P96374)
T2 construct: gene ppx2
T2 sequence (P96374 whole entry): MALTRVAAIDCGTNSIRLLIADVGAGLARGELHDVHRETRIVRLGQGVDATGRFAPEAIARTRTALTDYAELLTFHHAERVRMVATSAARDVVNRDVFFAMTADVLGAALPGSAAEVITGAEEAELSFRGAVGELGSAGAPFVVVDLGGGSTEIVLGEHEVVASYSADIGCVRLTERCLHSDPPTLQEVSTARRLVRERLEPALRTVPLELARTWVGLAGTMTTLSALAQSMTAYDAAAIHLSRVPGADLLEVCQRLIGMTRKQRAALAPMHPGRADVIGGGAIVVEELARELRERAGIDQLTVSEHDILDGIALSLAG

T1 sequence (P9WHV5 whole entry): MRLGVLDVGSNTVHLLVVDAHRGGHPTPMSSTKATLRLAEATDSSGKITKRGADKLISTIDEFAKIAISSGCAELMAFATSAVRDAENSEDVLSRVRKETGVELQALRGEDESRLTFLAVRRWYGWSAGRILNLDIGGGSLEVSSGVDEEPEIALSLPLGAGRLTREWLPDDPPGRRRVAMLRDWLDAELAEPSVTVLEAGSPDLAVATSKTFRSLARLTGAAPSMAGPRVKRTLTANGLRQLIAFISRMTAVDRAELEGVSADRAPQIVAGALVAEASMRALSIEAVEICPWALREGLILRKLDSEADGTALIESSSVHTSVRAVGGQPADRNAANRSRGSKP

Row | Compound | Exopolyphosphatase activities / +1 mM ppGpp / (% decrease) / ATPase activities (MTB-PPX1 (Rv0496) [1]) [%] | Exopolyphosphatase activities / +1 mM pppGpp / (% decrease) / ATPase activities (MTB-PPX1 (Rv0496) [2]) [%] | Exopolyphosphatase activities / +1 mM pppGpp / (% decrease) / ATPase activities (Rv1026) [%]
1 | Nc1nc2c(ncn2[C@@H]2O[C@H](COP(=O)(O)OP(=O)(O)O)[C@@H](OP(=O)(O)OP(=O)(O)O)[C@H]2O)c(=O)[nH]1 [ppGpp, guanosine 3′,5′-bisdiphosphate] | 5.9±0.7 |  | 
2 | Nc1nc2c(ncn2[C@@H]2O[C@H](COP(=O)(O)OP(=O)(O)OP(=O)(O)O)[C@@H](OP(=O)(O)OP(=O)(O)O)[C@H]2O)c(=O)[nH]1 [pppGpp, guanosine 5′-triphosphate, 3′-diphosphate] |  | 37.9±6.7 | 32.3±9.4
